Holding throughout (experiment): DTP human tumour cell line panel, 48 h
The test system of experiment [1] is BT-549 breast.
Experiment [2] relates to HCC-2998 colon.
Experiment [3] deals with HCT-116 colon.
For experiment [4], the system named is HL-60(TB) leukemia.
The subject of experiment [5] is NCI-H460 lung.
Experiment [6] concerns SK-MEL-2 melanoma.
The subject of experiment [7] is SK-OV-3 ovarian.
Experiment [8] has as its system SN12C renal.
Experiment [9] relates to T-47D breast.
The test system of experiment [10] is UACC-257 melanoma.

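Assay format: 96-well plates, 48-hour exposure. TGI: total growth inhibition.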 Where only a bound is given, the exact number is not on record here.

On to `C#CC1(O)C(COP(=O)(O)OCC2OC(n3ccc(NCCCCCCCCCCCCCCCCCC)nc3=O)C(O)C2O)OC(n2ccc(N)nc2=O)C1O` (stereo not given), for which the TGI in experiment [1] was 29.8 µM; in [2], greater than 34.5 µM; in [3] it was greater than 36 µM; in [4], 19.5 µM; in experiment [5], 34.4 µM; in experiment [6], 5.3 µM. Besides, the TGI in [7] is greater than 59.4 µM; in [8], 39.9 µM; in experiment [9] it was greater than 38.4 µM; in experiment [10], 60.2 µM.

Take `Cc1ccc(OC2CC(n3cnc4ncnc(Cl)c43)OC2Oc2ccc(C)cc2)cc1` (stereo not given): the TGI was greater than 100 µM in experiment [1]; 24.9 µM in experiment [2]; greater than 100 µM in experiment [3]; greater than 100 µM in experiment [4]; greater than 100 µM in [5]; 32.2 µM in experiment [6]. The TGI was greater than 100 µM in experiment [7], greater than 100 µM in experiment [8], 28.8 µM in experiment [9] and greater than 100 µM in experiment [10].

`CC1(CCCO)CCCCCCCCCC(C)(CCCO)C1=O` (stereo not given): the TGI in [1], in experiment [2], in experiment [3], in experiment [4], in [5] and in experiment [6] was greater than 100 µM each time. For the same molecule, the TGI in [7], in [8], in experiment [9] and in [10] was greater than 100 µM throughout.

Regarding `CCCCCCCCCCCCOP(=O)(O)OCC(N)C(=O)O` (stereo not given), the TGI in experiment [1] was 64 µM; in [2], greater than 100 µM; in experiment [3] it was 27.6 µM; in experiment [4] it was 36.8 µM; in [5], 43.2 µM; in experiment [6], 51.8 µM. For the same molecule, the concentration for total growth inhibition (TGI) in experiment [7] was 50.1 µM; in experiment [8], 61 µM; in [9] it was greater than 100 µM; in experiment [10], greater than 100 µM.

These data come from PubChem BioAssay (NCI).
